Results: ChEMBL document CHEMBL5291721, “A preclinical secondary pharmacology resource illuminates target-adverse drug reaction associations of marketed drugs” (Nat Commun, 2023)

What was measured:
Histamine H3 receptor = Histamine H3 receptor (Homo sapiens, UniProt Q9Y5N1)
Adenosine receptor A1 = target: T1, Adenosine receptor A1 (Homo sapiens, UniProt P30542)
T1 sequence (P30542 whole entry): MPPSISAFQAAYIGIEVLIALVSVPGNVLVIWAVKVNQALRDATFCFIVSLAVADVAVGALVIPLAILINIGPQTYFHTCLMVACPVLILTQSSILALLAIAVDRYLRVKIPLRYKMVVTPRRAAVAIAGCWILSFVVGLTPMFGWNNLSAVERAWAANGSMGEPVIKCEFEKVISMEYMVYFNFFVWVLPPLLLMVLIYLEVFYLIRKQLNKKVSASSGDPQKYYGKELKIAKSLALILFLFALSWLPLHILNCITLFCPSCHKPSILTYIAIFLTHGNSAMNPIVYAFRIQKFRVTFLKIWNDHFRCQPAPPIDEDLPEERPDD

Motilin receptor = Motilin receptor (Homo sapiens, UniProt O43193)
Sequence of Motilin receptor (O43193 whole entry): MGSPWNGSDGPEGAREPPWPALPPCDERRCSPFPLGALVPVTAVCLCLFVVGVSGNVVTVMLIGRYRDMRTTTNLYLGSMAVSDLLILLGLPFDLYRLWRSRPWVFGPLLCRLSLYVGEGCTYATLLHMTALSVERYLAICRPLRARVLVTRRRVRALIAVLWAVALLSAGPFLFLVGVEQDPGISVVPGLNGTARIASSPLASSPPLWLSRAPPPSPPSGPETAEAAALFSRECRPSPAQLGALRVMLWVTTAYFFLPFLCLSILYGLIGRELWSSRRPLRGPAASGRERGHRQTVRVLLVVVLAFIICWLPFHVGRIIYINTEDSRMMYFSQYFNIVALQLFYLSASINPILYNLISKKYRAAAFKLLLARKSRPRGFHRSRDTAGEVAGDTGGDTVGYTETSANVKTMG

Progesterone receptor = target: T2, Progesterone receptor (Homo sapiens, UniProt P06401); type: functional
T2 sequence (P06401 whole entry): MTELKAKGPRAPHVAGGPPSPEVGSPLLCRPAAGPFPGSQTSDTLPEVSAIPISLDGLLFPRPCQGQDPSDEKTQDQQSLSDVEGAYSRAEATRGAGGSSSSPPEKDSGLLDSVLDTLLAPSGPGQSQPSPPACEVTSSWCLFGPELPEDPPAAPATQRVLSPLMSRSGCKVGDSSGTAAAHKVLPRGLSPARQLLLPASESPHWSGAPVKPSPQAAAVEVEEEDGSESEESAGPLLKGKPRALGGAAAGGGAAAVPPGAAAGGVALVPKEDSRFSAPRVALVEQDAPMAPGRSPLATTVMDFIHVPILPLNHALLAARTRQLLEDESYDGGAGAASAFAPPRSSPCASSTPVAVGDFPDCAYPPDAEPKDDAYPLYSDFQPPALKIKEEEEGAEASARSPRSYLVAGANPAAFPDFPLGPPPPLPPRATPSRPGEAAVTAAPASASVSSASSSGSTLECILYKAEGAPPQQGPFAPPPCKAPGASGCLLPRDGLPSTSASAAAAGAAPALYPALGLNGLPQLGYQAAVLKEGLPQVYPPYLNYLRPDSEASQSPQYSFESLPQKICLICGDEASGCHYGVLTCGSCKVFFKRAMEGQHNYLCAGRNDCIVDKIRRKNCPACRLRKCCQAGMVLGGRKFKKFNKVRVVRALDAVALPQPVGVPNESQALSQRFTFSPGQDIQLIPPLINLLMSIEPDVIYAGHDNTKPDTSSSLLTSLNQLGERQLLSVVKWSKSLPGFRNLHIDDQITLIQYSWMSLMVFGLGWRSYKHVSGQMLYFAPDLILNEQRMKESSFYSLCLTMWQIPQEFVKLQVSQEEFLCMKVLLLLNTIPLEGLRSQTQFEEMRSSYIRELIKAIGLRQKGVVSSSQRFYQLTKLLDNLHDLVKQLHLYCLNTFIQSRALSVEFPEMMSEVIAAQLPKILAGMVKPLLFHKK

[1] = target: 5-hydroxytryptamine receptor 2B (Homo sapiens, UniProt P41595); type: functional, cell-based
Sequence of 5-hydroxytryptamine receptor 2B (P41595 whole entry): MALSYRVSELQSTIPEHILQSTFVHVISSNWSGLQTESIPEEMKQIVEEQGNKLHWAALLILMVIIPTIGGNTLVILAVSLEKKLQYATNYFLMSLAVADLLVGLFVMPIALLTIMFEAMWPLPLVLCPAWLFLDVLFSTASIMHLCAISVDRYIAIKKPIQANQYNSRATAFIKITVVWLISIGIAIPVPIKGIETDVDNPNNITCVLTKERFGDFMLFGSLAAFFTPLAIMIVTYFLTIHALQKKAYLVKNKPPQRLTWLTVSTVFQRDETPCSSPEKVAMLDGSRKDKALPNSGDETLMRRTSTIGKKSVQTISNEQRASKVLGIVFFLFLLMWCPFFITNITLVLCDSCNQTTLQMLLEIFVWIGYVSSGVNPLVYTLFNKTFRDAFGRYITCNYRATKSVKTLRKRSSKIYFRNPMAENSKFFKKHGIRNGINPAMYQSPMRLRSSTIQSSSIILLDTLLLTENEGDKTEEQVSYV

[2] = target: T3, Muscarinic acetylcholine receptor M2 (Homo sapiens, UniProt P08172); type: functional, cell-based
T3 sequence (P08172 whole entry): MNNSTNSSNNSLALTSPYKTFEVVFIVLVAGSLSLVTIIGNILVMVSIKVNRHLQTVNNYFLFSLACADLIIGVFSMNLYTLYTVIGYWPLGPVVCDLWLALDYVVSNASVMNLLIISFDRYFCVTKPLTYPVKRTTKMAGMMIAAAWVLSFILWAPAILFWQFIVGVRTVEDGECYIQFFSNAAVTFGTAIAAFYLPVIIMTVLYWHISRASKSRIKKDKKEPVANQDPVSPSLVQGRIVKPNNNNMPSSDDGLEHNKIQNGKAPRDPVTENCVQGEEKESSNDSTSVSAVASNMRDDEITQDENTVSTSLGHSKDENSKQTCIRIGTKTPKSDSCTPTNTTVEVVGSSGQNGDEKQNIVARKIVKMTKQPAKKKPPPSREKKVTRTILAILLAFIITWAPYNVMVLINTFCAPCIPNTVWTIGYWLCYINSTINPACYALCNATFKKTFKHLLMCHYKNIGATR

[3] = target: Sodium-dependent dopamine transporter (Homo sapiens, UniProt Q01959)
Sequence of Sodium-dependent dopamine transporter (Q01959 whole entry): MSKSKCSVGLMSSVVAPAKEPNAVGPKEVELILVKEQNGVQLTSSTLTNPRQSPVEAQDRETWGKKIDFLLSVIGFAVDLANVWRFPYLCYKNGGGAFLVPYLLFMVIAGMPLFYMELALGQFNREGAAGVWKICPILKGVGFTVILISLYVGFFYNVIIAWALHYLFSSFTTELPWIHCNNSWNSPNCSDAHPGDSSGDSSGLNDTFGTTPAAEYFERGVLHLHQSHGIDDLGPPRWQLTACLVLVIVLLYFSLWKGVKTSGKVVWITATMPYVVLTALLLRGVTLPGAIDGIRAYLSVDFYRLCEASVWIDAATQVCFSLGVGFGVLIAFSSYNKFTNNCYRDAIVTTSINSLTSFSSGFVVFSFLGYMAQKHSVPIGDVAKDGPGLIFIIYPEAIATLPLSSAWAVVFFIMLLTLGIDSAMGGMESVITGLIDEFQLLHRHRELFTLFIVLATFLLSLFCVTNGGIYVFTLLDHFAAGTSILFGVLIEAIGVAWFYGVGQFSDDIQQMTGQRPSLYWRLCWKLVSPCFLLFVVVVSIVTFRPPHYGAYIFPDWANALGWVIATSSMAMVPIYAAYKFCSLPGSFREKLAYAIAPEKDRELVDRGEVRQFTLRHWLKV

Adenosine receptor A3 = target: T4, Adenosine receptor A3 (Homo sapiens, UniProt P0DMS8)
T4 sequence (P0DMS8 whole entry): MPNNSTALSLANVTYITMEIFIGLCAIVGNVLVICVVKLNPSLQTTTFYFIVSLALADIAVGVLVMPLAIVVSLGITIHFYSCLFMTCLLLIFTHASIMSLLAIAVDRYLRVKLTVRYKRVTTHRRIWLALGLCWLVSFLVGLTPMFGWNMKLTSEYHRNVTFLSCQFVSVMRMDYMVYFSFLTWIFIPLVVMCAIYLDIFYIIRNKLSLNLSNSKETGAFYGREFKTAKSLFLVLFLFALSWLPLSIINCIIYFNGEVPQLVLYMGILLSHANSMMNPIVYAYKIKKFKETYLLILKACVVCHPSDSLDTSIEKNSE

[4] = target: Sodium-dependent noradrenaline transporter (Homo sapiens, UniProt P23975)
Sequence of Sodium-dependent noradrenaline transporter (P23975 whole entry): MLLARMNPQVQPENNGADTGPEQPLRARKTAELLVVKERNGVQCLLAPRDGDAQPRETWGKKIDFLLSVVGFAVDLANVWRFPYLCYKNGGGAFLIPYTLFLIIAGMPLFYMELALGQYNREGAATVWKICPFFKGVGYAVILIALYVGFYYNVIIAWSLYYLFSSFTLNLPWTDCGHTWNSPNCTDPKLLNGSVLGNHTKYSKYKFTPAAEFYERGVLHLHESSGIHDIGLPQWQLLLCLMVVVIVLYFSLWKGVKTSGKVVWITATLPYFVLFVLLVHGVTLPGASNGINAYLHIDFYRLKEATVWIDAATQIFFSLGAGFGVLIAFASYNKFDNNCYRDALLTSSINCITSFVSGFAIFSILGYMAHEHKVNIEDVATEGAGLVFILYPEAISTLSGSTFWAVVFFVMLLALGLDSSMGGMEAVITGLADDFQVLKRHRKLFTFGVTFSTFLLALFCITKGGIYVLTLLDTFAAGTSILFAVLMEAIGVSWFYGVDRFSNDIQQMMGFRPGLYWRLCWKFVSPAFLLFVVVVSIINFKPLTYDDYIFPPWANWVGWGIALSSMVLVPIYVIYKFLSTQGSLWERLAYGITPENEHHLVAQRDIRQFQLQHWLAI

[5] = target: T5, 5-hydroxytryptamine receptor 2C (Homo sapiens, UniProt P28335)
T5 sequence (P28335 whole entry): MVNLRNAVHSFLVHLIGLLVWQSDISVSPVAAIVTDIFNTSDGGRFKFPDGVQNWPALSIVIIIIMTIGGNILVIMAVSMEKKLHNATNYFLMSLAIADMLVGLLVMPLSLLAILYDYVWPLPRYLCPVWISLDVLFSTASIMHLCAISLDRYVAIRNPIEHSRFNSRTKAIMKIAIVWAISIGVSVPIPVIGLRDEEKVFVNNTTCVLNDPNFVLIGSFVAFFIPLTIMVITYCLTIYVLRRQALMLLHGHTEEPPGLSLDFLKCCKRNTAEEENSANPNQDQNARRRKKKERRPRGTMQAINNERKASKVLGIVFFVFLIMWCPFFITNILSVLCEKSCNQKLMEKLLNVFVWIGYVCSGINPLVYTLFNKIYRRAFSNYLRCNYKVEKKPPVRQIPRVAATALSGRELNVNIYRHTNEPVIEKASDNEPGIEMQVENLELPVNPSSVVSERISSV
Further: assay procedure not described here.

Sequence of Histamine H3 receptor (Q9Y5N1 whole entry): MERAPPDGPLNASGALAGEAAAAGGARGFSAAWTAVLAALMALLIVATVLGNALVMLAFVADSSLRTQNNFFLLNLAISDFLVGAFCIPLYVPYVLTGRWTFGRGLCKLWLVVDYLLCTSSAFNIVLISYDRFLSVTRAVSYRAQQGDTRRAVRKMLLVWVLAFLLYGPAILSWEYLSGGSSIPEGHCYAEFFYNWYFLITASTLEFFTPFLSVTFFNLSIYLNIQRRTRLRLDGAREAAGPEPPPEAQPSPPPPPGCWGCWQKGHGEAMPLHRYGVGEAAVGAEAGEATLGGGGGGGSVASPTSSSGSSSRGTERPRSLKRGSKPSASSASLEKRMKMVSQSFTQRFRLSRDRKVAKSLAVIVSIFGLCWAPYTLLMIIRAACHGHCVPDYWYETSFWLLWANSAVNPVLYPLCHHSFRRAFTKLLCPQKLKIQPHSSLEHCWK

SMILES | AC50 (Histamine H3 receptor) [µM] | AC50 (Adenosine receptor A1) [µM] | AC50 (Motilin receptor) [µM] | AC50 (Progesterone receptor) [µM] | AC50 [1] [µM] | AC50 [2] [µM] | AC50 [3] [µM] | AC50 (Adenosine receptor A3) [µM] | AC50 [4] [µM] | AC50 [5] [µM]
CC(C)N(CCCCOCC(=O)O)c1cnc(-c2ccccc2)c(-c2ccccc2)n1 | > 30 | > 30 | > 30 | > 30 | > 30 | > 30 | > 30 | 10.1 | > 30 | > 30
C[N+]12CCC(CC1)C(OC(=O)C(O)(c1ccccc1)c1ccccc1)C2 (stereo unspecified) | > 30 | > 30 | > 30 | > 30 | > 30 |  | > 30 | > 30 | > 30 | > 30
COc1ccc(C2C(=O)c3ccccc3C2=O)cc1 [ANISINDIONE] |  | > 10 | > 10 | > 30 | > 10 | > 10 | > 10 | > 10 | > 10 | > 30
O=C(O)c1ccc(NC(=O)[C@H](Cc2ccc(O)cc2)NC(=O)c2ccccc2)cc1 [BENTIROMIDE] |  | > 10 | > 10 | > 10 | > 10 | > 10 | > 10 | > 10 | > 10 | > 30
NS(=O)(=O)c1cc2c(cc1Cl)N=C(CSCc1ccccc1)NS2(=O)=O [BENZTHIAZIDE] |  | > 10 | > 10 | > 30 | > 10 | > 10 | > 10 | > 10 | > 10 | > 30
O=C(CCCN1CCC(O)(c2ccc(Br)cc2)CC1)c1ccc(F)cc1 [BROMPERIDOL] | > 30 | > 30 | > 30 | > 30 | > 30 | > 30 |  | > 30 |  | > 30
CO/N=C(\C(=O)N[C@@H]1C(=O)N2C(C(=O)O)=CCS[C@H]12)c1csc(N)n1 [CEFTIZOXIME] | > 30 | > 30 | > 30 | 26 | > 30 | > 30 | > 30 | > 30 | > 30 | 
CC(C)[C@@H](C)/C=C/[C@@H](C)[C@H]1CC[C@H]2/C(=C/C=C3\C[C@@H](O)CC[C@@H]3C)CCC[C@]12C [DIHYDROTACHYSTEROL] |  | > 10 | > 10 | 11.2 | > 10 | > 10 | > 10 | > 10 | > 10 | > 30
CCCC(C)(COC(N)=O)COC(N)=O [MEPROBAMATE] |  | > 10 | > 10 | > 10 | > 10 | > 10 | > 10 | > 10 | > 10 | > 30
